From the supplement of paper PMC11451515

Tested on: NOMO1
Assay: cell viability relative to DMSO control; higher = less cytotoxic
Conditions: 48 h
In short: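 NOMO1, SEM and P12-Ichikawa leukemia cells spent at least four passages adapting to each medium before use. They were seeded at 500 cells/well (NOMO1, SEM) or 1000 cells/well (P12-Ichikawa) in 5 μl in 1536-well plates and pin-dosed with library compounds in DMSO at 11 threefold steps from 47 μM down to 0.79 nM. After 48 h at 37°C, CellTiter-Glo One luminescence was read. Viability is reported as a percentage of the DMSO wells on each plate, with cell-free wells as background.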

[1] = HPLM + 10% dialyzed FBS, 0.000781 µM
[2] = HPLM + 10% dialyzed FBS, 0.00234 µM
[3] = HPLM + 10% dialyzed FBS, 0.00702 µM
[4] = HPLM + 10% dialyzed FBS, 0.0211 µM
[5] = HPLM + 10% dialyzed FBS, 0.0632 µM
[6] = HPLM + 10% dialyzed FBS, 0.19 µM
[7] = HPLM + 10% dialyzed FBS, 0.569 µM
[8] = HPLM + 10% dialyzed FBS, 1.71 µM
[9] = HPLM + 10% dialyzed FBS, 5.12 µM
[10] = HPLM + 10% dialyzed FBS, 15.4 µM
[11] = HPLM + 10% dialyzed FBS, 46.1 µM
[12] = RPMI 5 mM glucose + 10% FBS, 0.000781 µM
[13] = RPMI 5 mM glucose + 10% FBS, 0.00234 µM
[14] = RPMI 5 mM glucose + 10% FBS, 0.00702 µM
[15] = RPMI 5 mM glucose + 10% FBS, 0.0211 µM
[16] = RPMI 5 mM glucose + 10% FBS, 0.0632 µM
[17] = RPMI 5 mM glucose + 10% FBS, 0.19 µM
[18] = RPMI 5 mM glucose + 10% FBS, 0.569 µM
[19] = RPMI 5 mM glucose + 10% FBS, 1.71 µM
[20] = RPMI 5 mM glucose + 10% FBS, 5.12 µM
[21] = RPMI 5 mM glucose + 10% FBS, 15.4 µM
[22] = RPMI 5 mM glucose + 10% FBS, 46.1 µM
[23] = RPMI 5 mM glucose + 10% dialyzed FBS, 0.000781 µM
[24] = RPMI 5 mM glucose + 10% dialyzed FBS, 0.00234 µM
[25] = RPMI 5 mM glucose + 10% dialyzed FBS, 0.00702 µM
[26] = RPMI 5 mM glucose + 10% dialyzed FBS, 0.0211 µM
[27] = RPMI 5 mM glucose + 10% dialyzed FBS, 0.0632 µM
[28] = RPMI 5 mM glucose + 10% dialyzed FBS, 0.19 µM
[29] = RPMI 5 mM glucose + 10% dialyzed FBS, 0.569 µM
[30] = RPMI 5 mM glucose + 10% dialyzed FBS, 1.71 µM
[31] = RPMI 5 mM glucose + 10% dialyzed FBS, 5.12 µM
[32] = RPMI 5 mM glucose + 10% dialyzed FBS, 15.4 µM
[33] = RPMI 5 mM glucose + 10% dialyzed FBS, 46.1 µM

SMILES | cell viability [1] [%] | cell viability [2] [%] | cell viability [3] [%] | cell viability [4] [%] | cell viability [5] [%] | cell viability [6] [%] | cell viability [7] [%] | cell viability [8] [%] | cell viability [9] [%] | cell viability [10] [%] | cell viability [11] [%] | cell viability [12] [%] | cell viability [13] [%] | cell viability [14] [%] | cell viability [15] [%] | cell viability [16] [%] | cell viability [17] [%] | cell viability [18] [%] | cell viability [19] [%] | cell viability [20] [%] | cell viability [21] [%] | cell viability [22] [%] | cell viability [23] [%] | cell viability [24] [%] | cell viability [25] [%] | cell viability [26] [%] | cell viability [27] [%] | cell viability [28] [%] | cell viability [29] [%] | cell viability [30] [%] | cell viability [31] [%] | cell viability [32] [%] | cell viability [33] [%]
O=C(NOCC(O)CO)c1cc(Br)c(F)c(F)c1Nc1ccc(I)cc1F (stereo not drawn) | 65.8 | 77.1 | 72.1 | 79.8 | 59.2 | 50.5 | 30.1 | 32.6 | 29 | 33.9 | 20 | 69.1 | 90.6 | 67.6 | 73.3 | 66.5 | 50.5 | 28.1 | 33.7 | 27.5 | 28.8 | 27.8 | 81.3 | 84.3 | 59.2 | 58.1 | 49.8 | 40.9 | 27.5 | 30.3 | 26.7 | 31.2 | 24.6
COC1=CC=CC2=C1C(=NC(=N2)C3=CC=CS3)NN4C(=O)\C=C(C)/C4=O | 95.7 | 103 | 94 | 87.7 | 77.6 | 60.3 | 44.1 | 38.2 | 8.17 | 1.91 | 2.25 | 90 | 88.4 | 92.9 | 84.8 | 92.3 | 78.2 | 56.2 | 48.2 | 14.4 | 3.32 | 4.06 | 81.1 | 85.3 | 94.5 | 82.4 | 74.6 | 68.8 | 50.4 | 38.9 | 16.9 | 4.27 | 2.63
CNC(=O)c1ccc(-c2cnc3ncc(Cc4ccc5ncccc5c4)n3n2)cc1F | 113 | 127 | 120 | 103 | 132 | 116 | 131 | 133 | 125 | 117 | 135 | – | – | – | – | – | – | – | – | – | – | – | 116 | 124 | 138 | 131 | 126 | 136 | 129 | 136 | 130 | 137 | 145
C\C1=C\C(=O)OC2=C1C=CC(=C2)O | 119 | 129 | 122 | 133 | 120 | 130 | 120 | 118 | 113 | 110 | 104 | 116 | 122 | 117 | 111 | 119 | 122 | 105 | 120 | 117 | 123 | 106 | 117 | 118 | 120 | 118 | 110 | 108 | 104 | 102 | 109 | 113 | 90.7
CC(C)OC(=O)OCOP(=O)(CO[C@H](C)Cn1cnc2c(N)ncnc21)OCOC(=O)OC(C)C.O=C(O)C=CC(=O)O | 98.7 | 120 | 120 | 105 | 133 | 129 | 126 | 123 | 104 | 89.6 | 53.1 | 95.8 | 121 | 125 | 116 | 115 | 128 | 109 | 118 | 115 | 103 | 38.6 | 117 | 117 | 112 | 117 | 124 | 122 | 128 | 124 | 114 | 102 | 15.1
COc1cc2nc(N(C)CCCNC(=O)C3CCCO3)nc(N)c2cc1OC (stereo not drawn) | 63.4 | 82.7 | 99.4 | 77.8 | 96.3 | 90.6 | 79.7 | 89.7 | 31.3 | 28 | 20 | 70.7 | 74 | 71.9 | 75.4 | 73.2 | 81.8 | 72.1 | 71.9 | 33.2 | 36 | 10 | 61.6 | 76.5 | 68.8 | 85 | 77.6 | 77.9 | 75.4 | 87.4 | 51.9 | 61.9 | 15.1
CNC1CCC(N(Cc2cccc(-c3ccncc3)c2)C(=O)c2sc3ccccc3c2Cl)CC1 (stereo not drawn) | 74.1 | 92.9 | 104 | 113 | 107 | 99 | 101 | 36.1 | 6.61 | 7.33 | 1.5 | 90.8 | 85.3 | 85.5 | 93 | 86 | 90.6 | 92.4 | 87.7 | 11.3 | 5.87 | 1.62 | 79.3 | 88.3 | 93.2 | 87 | 84.7 | 97.8 | 95.9 | 102 | 55 | 60.4 | 1.53
OC[C@H]1O[C@@H](O[C@@H]2[C@@H](CO)O[C@](O)(CO)[C@H]2O)[C@H](O)[C@@H](O)[C@H]1O | 108 | 110 | 110 | 113 | 99.5 | 92.2 | 103 | 95.1 | 102 | 47.7 | 78.1 | 91.1 | 95.4 | 111 | 109 | 105 | 100 | 105 | 97.3 | 88.1 | 71.9 | 86.2 | 91.4 | 86.6 | 103 | 97.5 | 95.7 | 101 | 100 | 98.7 | 92.5 | 68.1 | 80.6
